Where two headings read alike, the source gives them in different places. Where only a bound is given, the exact number is not on record here.

In general, chromatographic logD refers to a lipophilicity value derived from retention on a column. Lower therefore signals lower lipophilicity.

The target of series [1] is T1, full-length beta-Catenin (Uniprot ID P35222) (Homo sapiens, UniProt P35222).
T1 construct: 10 nM full-length beta-Catenin (Uniprot ID P35222)
T1 sequence (P35222 1-781): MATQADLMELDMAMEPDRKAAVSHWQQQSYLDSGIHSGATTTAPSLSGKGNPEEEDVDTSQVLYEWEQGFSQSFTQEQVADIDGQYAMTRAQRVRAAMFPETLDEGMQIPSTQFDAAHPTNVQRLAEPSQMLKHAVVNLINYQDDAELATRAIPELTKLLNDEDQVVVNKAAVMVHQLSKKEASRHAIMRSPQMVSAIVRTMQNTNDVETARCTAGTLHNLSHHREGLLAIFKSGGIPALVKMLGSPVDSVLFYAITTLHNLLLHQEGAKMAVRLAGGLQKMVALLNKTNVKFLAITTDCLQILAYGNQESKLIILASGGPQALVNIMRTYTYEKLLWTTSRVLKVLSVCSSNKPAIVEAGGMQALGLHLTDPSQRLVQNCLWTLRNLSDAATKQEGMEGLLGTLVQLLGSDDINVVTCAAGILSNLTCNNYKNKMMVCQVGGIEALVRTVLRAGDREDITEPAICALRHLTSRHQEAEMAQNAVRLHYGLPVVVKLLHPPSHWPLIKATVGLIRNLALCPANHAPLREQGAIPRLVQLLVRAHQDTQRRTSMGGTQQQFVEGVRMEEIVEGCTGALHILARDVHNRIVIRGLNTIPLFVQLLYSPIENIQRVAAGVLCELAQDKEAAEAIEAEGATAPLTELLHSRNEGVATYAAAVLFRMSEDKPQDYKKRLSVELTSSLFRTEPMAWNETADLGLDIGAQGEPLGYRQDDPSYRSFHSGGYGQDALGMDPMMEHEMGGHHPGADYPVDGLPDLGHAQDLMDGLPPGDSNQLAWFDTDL
Description: Fluorescence polarization IC50 (beta-catenin / 5FAM-TCF4 10-53 competition). The series is classed as binding.

Another series is described as follows: CHI Log D procedure. Format: physicochemical. The note with it: for CHI Log D: pH 7.4; for chromatographic logD: pH 7.4, CHI Log D.
Series [2] addresses T2, beta-catenin/TCF4 engagement (Homo sapiens, UniProt P35222).
T2 construct: expressed in transfected cells; host or cells: HEK293
T2 sequence (P35222 1-781): T1 sequence (P35222 1-781)
Description: Nano-BRET target engagement assay (B-cat-Halo & TCF4-Luc in HEK293 cells). The series is classed as cell-based. (In general: Bioluminescence resonance energy transfer reports proximity on the nanometre scale.)

[3] abbreviates: fluorescence polarization, beta-catenin, read-out: FP EC50.

`CC(=O)N1CCC[C@]12CC=CCCCC1(CCCC=CCCCOC(=O)N3CC[C@@](C(=O)N[C@@H](Cc4cccc(Cl)c4)C(=O)N[C@@H](Cc4csc5ccccc45)C(=O)N[C@@H](CCC(N)=O)C(N)=O)(C3)NC(=O)[C@H](CC(N)=O)NC(=O)[C@H](Cc3ccccc3)NC(=O)[C@H](C)NC(=O)[C@H](C)NC(=O)[C@H](CN(CC(=O)O)CC(F)(F)F)NC(=O)[C@H](CC(=O)O)NC1=O)NC(=O)[C@H](CC(C)(C)C)NC(=O)[C@H](CC(=O)O)NC2=O` (stereo partly drawn) [I-926, Ac-PL3-Asp-Npg-B5-Asp-TfeGA-Ala-Ala-Phe-Asn-PyrS2-3C1F-BztA-Gln-NH2]: the IC50 in series [1] (setting [3]) amounted to 0.043 µM; in series [1] (read-out: beta-Catenin FP IC50), 0.043 µM; in series [2] (read-out: NanoBRET IC50), 17.1 µM. Besides, the “CHI Log D” value in the series “CHI Log D procedure” is recorded as 2.406.

Consider `CC(=O)N1CCC[C@]12CC=CCCCC1(CCCC=CCCCOC(=O)N3CC[C@@](C(=O)N[C@@H](Cc4ccccc4C(F)(F)F)C(=O)N[C@@H](Cc4csc5ccccc45)C(=O)N[C@@H](CCC(N)=O)C(N)=O)(C3)NC(=O)[C@H](CC(N)=O)NC(=O)[C@H](Cc3ccccc3)NC(=O)[C@H](C)NC(=O)[C@H](C)NC(=O)[C@H](CN(CC(=O)O)CC(F)(F)F)NC(=O)[C@H](CC(=O)O)NC1=O)NC(=O)[C@H](CC(C)(C)C)NC(=O)[C@H](CC(=O)O)NC2=O` (stereo partly drawn) [I-928, Ac-PL3-Asp-Npg-B5-Asp-TfeGA-Ala-Ala-Phe-Asn-PyrS2-2F3MeF-BztA-Gln-NH2], for which the IC50 stood at 0.021 µM in series [1] (setting [3]), 0.021 µM in series [1] (read-out: beta-Catenin FP IC50), 6.1 µM in series [2] (read-out: NanoBRET Abs IC50) and 5 µM in series [2] (read-out: NanoBRET IC50). For the same compound, the “CHI Log D” value in “CHI Log D procedure” worked out at 2.38.

In the case of `CC(=O)N1CCC[C@]12CC=CCCCC1(CCCC=CCCCCCC[C@@](C)(C(=O)N[C@@H](Cc3ccccc3Cl)C(=O)N[C@@H](Cc3csc4ccccc34)C(=O)N[C@@H](CCC(N)=O)C(N)=O)NC(=O)[C@H](CC(N)=O)NC(=O)[C@H](Cc3ccccc3)NC(=O)[C@H](C)NC(=O)[C@H](C)NC(=O)[C@H](CN(CC(=O)O)CC(F)(F)F)NC(=O)[C@H](CC(=O)O)NC1=O)NC(=O)[C@H](CC(C)(C)C)NC(=O)[C@H](CC(=O)O)NC2=O` (stereo partly drawn) [I-929, Ac-PL3-Asp-Npg-B5-Asp-TfeGA-Ala-Ala-Phe-Asn-S8-2C1F-BztA-Gln-NH2], the IC50 in series [1] (read-out: beta-Catenin FP IC50) was 0.023 µM; in series [2] (read-out: NanoBRET Abs IC50), 10.3 µM; in series [2] (read-out: NanoBRET IC50) it was 7 µM. The chromatographic logD in the series “CHI Log D procedure” is 2.74.

`CC(=O)N1CCC[C@]12CC=CCCCC1(CCCC=CCCCCCC[C@@](C)(C(=O)N[C@@H](Cc3ccccc3Cl)C(=O)N[C@@H](Cc3csc4ccccc34)C(=O)N[C@@H](CCC(N)=O)C(N)=O)NC(=O)[C@H]([C@@H](C)O)NC(=O)[C@H](Cc3ccccc3)NC(=O)[C@H](C)NC(=O)[C@H](C)NC(=O)[C@H](CN(CC(=O)O)CC(F)(F)F)NC(=O)[C@H](CC(=O)O)NC1=O)NC(=O)[C@H](CC(C)(C)C)NC(=O)[C@H](CC(=O)O)NC2=O` (stereo partly drawn) [I-930, Ac-PL3-Asp-Npg-B5-Asp-TfeGA-Ala-Ala-Phe-Thr-S8-2C1F-BztA-Gln-NH2]: the IC50 worked out at 0.037 µM in series [1] (read-out: beta-Catenin FP IC50), 13.5 µM in series [2] (read-out: NanoBRET Abs IC50) and 5.6 µM in series [2] (read-out: NanoBRET IC50). This compound also had a chromatographic logD in the series “CHI Log D procedure” of 2.96.

Turning to `CC(=O)N1CCC[C@]12CC=CCCCC1(CCCC=CCCCCCC[C@@](C)(C(=O)N[C@@H](Cc3ccccc3Br)C(=O)N[C@@H](Cc3csc4ccccc34)C(=O)N[C@@H](CCC(N)=O)C(N)=O)NC(=O)[C@H](CC(N)=O)NC(=O)[C@H](Cc3ccccc3)NC(=O)[C@H](C)NC(=O)[C@H](C)NC(=O)[C@H](CN(CC(=O)O)CC(F)(F)F)NC(=O)[C@H](CC(=O)O)NC1=O)NC(=O)[C@H](CC(C)(C)C)NC(=O)[C@H](CC(=O)O)NC2=O` (stereo partly drawn) [I-932, Ac-PL3-Asp-Npg-B5-Asp-TfeGA-Ala-Ala-Phe-Asn-S8-2BrF-BztA-Gln-NH2], the IC50 in series [1] (read-out: beta-Catenin FP IC50) is 0.035 µM; in series [2] (absolute IC50, read-out: NanoBRET Abs IC50), 11.4 µM. In the series “CHI Log D procedure”, this compound showed a chromatographic logD of 2.77.

On to `CC(=O)N1CCC[C@]12CC=CCCCC1(CCCC=CCCCCCC[C@@](C)(C(=O)N[C@@H](Cc3cccc(Cl)c3)C(=O)N[C@@H](Cc3csc4ccccc34)C(=O)N[C@@H](CCC(N)=O)C(N)=O)NC(=O)[C@H](CC(N)=O)NC(=O)[C@H](Cc3ccccc3)NC(=O)[C@H](C)NC(=O)[C@H](C)NC(=O)[C@H](CN(CC(=O)O)CC(F)(F)F)NC(=O)[C@H](CC(=O)O)NC1=O)NC(=O)[C@H](CC(C)(C)C)NC(=O)[C@H](CC(=O)O)NC2=O` (stereo partly drawn) [I-933, Ac-PL3-Asp-Npg-B5-Asp-TfeGA-Ala-Ala-Phe-Asn-S8-3C1F-BztA-Gln-NH2], for which the IC50 is 0.168 µM in series [1] (read-out: beta-Catenin FP IC50), 22.2 µM in series [2] (read-out: NanoBRET Abs IC50) and > 20 µM in series [2] (read-out: NanoBRET IC50). Also, the chromatographic logD in the series “CHI Log D procedure” is 3.03.

In the case of `C#CCOCCC(=O)NCCCC[C@H](NC(=O)[C@H](CCC(N)=O)NC(=O)[C@H](Cc1csc2ccccc12)NC(=O)[C@H](Cc1ccsc1)NC(=O)[C@]12CCN(C1)C(=O)OCCCC=CCCCC1(CCCC=CC[C@]3(CCCN3C(C)=O)C(=O)N[C@@H](CC(=O)O)C(=O)N[C@@H](CC(C)(C)C)C(=O)N1)C(=O)N[C@@H](CC(=O)O)C(=O)N[C@@H](CC(=O)O)C(=O)N[C@@H](C)C(=O)N[C@@H](C)C(=O)N[C@@H](Cc1ccccc1)C(=O)N[C@@H](CC(N)=O)C(=O)N2)C(N)=O` (stereo partly drawn) [I-935, Ac-PL3-Asp-Npg-B5-Asp-Asp-Ala-Ala-Phe-Asn-PyrS2-3Thi-BztA-Gln-[PropynPEG1]Lys-NH2], the values for the IC50 in series [1] (read-out: beta-Catenin FP IC50) and in series [2] (read-out: NanoBRET Abs IC50) were 0.008 µM and 33.1 µM, respectively. In “CHI Log D procedure”, this compound gave a chromatographic logD of 1.93.

In the case of `C#CCOCCOCCC(=O)NCCCC[C@H](NC(=O)[C@H](CCC(N)=O)NC(=O)[C@H](Cc1csc2ccccc12)NC(=O)[C@H](Cc1ccsc1)NC(=O)[C@]12CCN(C1)C(=O)OCCCC=CCCCC1(CCCC=CC[C@]3(CCCN3C(C)=O)C(=O)N[C@@H](CC(=O)O)C(=O)N[C@@H](CC(C)(C)C)C(=O)N1)C(=O)N[C@@H](CC(=O)O)C(=O)N[C@@H](CC(=O)O)C(=O)N[C@@H](C)C(=O)N[C@@H](C)C(=O)N[C@@H](Cc1ccccc1)C(=O)N[C@@H](CC(N)=O)C(=O)N2)C(N)=O` (stereo partly drawn) [I-936, Ac-PL3-Asp-Npg-B5-Asp-Asp-Ala-Ala-Phe-Asn-PyrS2-3Thi-BztA-Gln-[PropynPEG2]Lys-NH2], the IC50 was determined as 0.007 µM in series [1] (read-out: beta-Catenin FP IC50) and 22.2 µM in series [2] (read-out: NanoBRET Abs IC50). For the same compound, the chromatographic logD in the series “CHI Log D procedure” worked out at 1.94.

For the compound `C#CCOCCOCCOCCC(=O)NCCCC[C@H](NC(=O)[C@H](CCC(N)=O)NC(=O)[C@H](Cc1csc2ccccc12)NC(=O)[C@H](Cc1ccsc1)NC(=O)[C@]12CCN(C1)C(=O)OCCCC=CCCCC1(CCCC=CC[C@]3(CCCN3C(C)=O)C(=O)N[C@@H](CC(=O)O)C(=O)N[C@@H](CC(C)(C)C)C(=O)N1)C(=O)N[C@@H](CC(=O)O)C(=O)N[C@@H](CC(=O)O)C(=O)N[C@@H](C)C(=O)N[C@@H](C)C(=O)N[C@@H](Cc1ccccc1)C(=O)N[C@@H](CC(N)=O)C(=O)N2)C(N)=O` (stereo partly drawn) [I-937, Ac-PL3-Asp-Npg-B5-Asp-Asp-Ala-Ala-Phe-Asn-PyrS2-3Thi-BztA-Gln-[PropynPEG3]Lys-NH2], the results for the IC50 in series [1] (read-out: beta-Catenin FP IC50) and in series [2] (read-out: NanoBRET Abs IC50) were 0.009 µM and 28.8 µM, respectively. In “CHI Log D procedure”, this compound returned a chromatographic logD of 1.94.

The values are drawn from patent publication US20240116985A1, “STAPLED PEPTIDES AND METHODS THEREOF” (priority 2020, published 2024).
